Source: US10576126B2, “Antitumor agent” (NATIONAL UNIVERSITY CORPORATION ASAHIKAWA MEDICAL UNIVERSITY, priority 2016, dated 2020)
“Also recorded” adds a separate entry of the source. Where two headings read alike, the source gives them in different places. Where a SMILES comes first, the peptide text is derived from it. [ ]: non-standard residue; d: D form. Orn(N5-OH,N5-Ac) = CC(=O)N(O)CCC[C@H](N)C(=O)O

Tests used:
[1] = tested on: rat intestinal epithelial cell line IEC-18
[2] = tested on: colorectal cancer cell line Caco2/bbe; assay: SRB assay, colorectal cancer cell line Caco2/bbe; format: cell-based
Method: (§1) L. casei ATCC334, LGG ATCC53103, L. coryniformis ATCC25600 and L. fermentis ATCC23271 were purchased from ATCC. These microorganisms were cultured overnight at 37° C. using MRS broth (Difco) and then transferred to MEM and cultured for one day. The cultured medium was centrifuged at 5,000×g for 10 minutes to collect the supernatant, which was filtered through a 0.2 μm filter and used as the culture supernatant in the following examples.
(§2) By using the colorectal cancer cell lines Caco2/bbe, SKCO-1 and SW620 as test cells and the culture supernatants of LGG ATCC53103, L. casei ATCC334, L. coryniformis ATCC25600 and L. fermentis ATCC23271 as measurement samples, an antitumor activity of each supernatant was measured by SRB-assay.

[3] = tested on: colorectal cancer cell line SKCO-1; assay: SRB assay, colorectal cancer cell line SKCO-1; format: cell-based; conditions: SKCO-1, SRB assay
Method: as §1, §2

[4] = tested on: colorectal cancer cell line SW620; assay: SRB assay, colorectal cancer cell line SW620; format: cell-based
Method: as §1, §2
This fraction was subjected to mass spectrometry (TOF, ionization method: micro ESI) using Nano Frontier elD Liquid Chromatograpy Mass Spectrometer (Hitachi High-technologies), and a chart shown in FIG. 3A was obtained. The peak at m/z 763.2 in this chart was approximately consistent with that in the chart obtained for commercial ferrichrome (Sigma-Aldrich) by mass spectrometry in a similar mannar (FIG. 3B). By using commercially available ferrichrome as a measurement sample and the colorectal cancer cell line SW620 as a test cell, an antitumor activity was measured.

[5] = tested on: mouse primary intestinal epithelial cells; assay: SRB assay, mouse primary intestinal epithelial cells; format: cell-based
Method: Mouse primary intestinal epithelial cells were prepared and cultured according to the method as reported previously (Liu X et al., Am J Pathol. 2012 February; 180(2): 599-607).

[6] = tested on: colorectal cancer cell line HT29; assay: SRB assay, colorectal cancer cell line HT29; format: cell-based
[7] = tested on: colorectal cancer cell line HCT116; assay: SRB assay, colorectal cancer cell line HCT116; format: cell-based
[8] = tested on: pancreatic cancer cell line bxpc3; assay: SRB assay, pancreatic cancer cell line bxpc3; format: cell-based
[9] = tested on: pancreatic cancer cell line suit2; assay: SRB assay, pancreatic cancer cell line suit2; format: cell-based
[10] = tested on: gastric cancer cell line MKN45; assay: SRB assay, gastric cancer cell line MKN45; format: cell-based
[11] = tested on: gastric cancer cell line SH-10-TC; assay: SRB assay, gastric cancer cell line SH-10-TC; format: cell-based
[12] = tested on: esophageal cancer cell line OE33; assay: SRB assay, esophageal cancer cell line OE33; format: cell-based
[13] = tested on: pancreatic cancer cell line KP3; assay: Antitumor activity, pancreatic cancer cell line KP3; format: cell-based
[14] = tested on: pancreatic cancer cell line KP1N; assay: Antitumor activity, pancreatic cancer cell line KP1N; format: cell-based
[15] = tested on: pancreatic cancer cell line KP3L; assay: Antitumor activity, pancreatic cancer cell line KP3L; format: cell-based
[16] = tested on: pancreatic cancer cell line Miapaca; assay: Antitumor activity, pancreatic cancer cell line Miapaca; format: cell-based
[17] = tested on: gastric cancer cell line MKN7; assay: Antitumor activity, gastric cancer cell line MKN7; format: cell-based
[18] = tested on: gastric cancer cell line MKN74; assay: Antitumor activity, gastric cancer cell line MKN74; format: cell-based
[19] = tested on: esophageal cancer cell line OE19; assay: Antitumor activity, esophageal cancer cell line OE19; format: cell-based
[20] = tested on: colorectal cancer cell line SW620; assay: SW620 subcutaneous transplantation in BALB/c-nude mice; format: in vivo; conditions: 10 μg/day to the transplantation site, daily, observed for 9 days, vs PBS
From the text: 2×10^6 cells of colorectal cancer cell line SW620 were transplanted subcutaneously into the back of BALB/c-nude mice. […] The appearance of the mice on day 1 after transplantation and on day 9 after transplantation are shown in FIG. 6, and the change in tumor mass volume is shown in FIG. 7, respectively.

[21] = tested on: gastric cancer cells MKN45; assay: MKN45 subcutaneous transplantation in BALB/c nude mice; format: in vivo; conditions: 100 μg daily into the transplantation site, vs PBS
Method: Two groups of BALB/c nude mice (n=6/group) were transplanted with 1×10^6 gastric cancer cells MKN45 by subcutaneous injection into their back. Each day from the day following transplantation, 100 μg of ferrichrome dissolved in PBS in one group and PBS alone in the other group were administered into the transplantation site, and the mice were kept under normal breeding conditions for 21 days. Photographs of the transplantation site 1 day and 19 days after transplantation are shown in FIG. 19, and the change in tumor volume ratio when the tumor volume 1 day after transplantation set to 1 is shown in FIG. 20.

[22] = tested on: pancreatic cancer cell Suit2; assay: Suit2 subcutaneous transplantation in nude mice; format: in vivo; conditions: 100 μg intraperitoneally once every two days for 12 days, vs PBS
Method: Two days after subcutaneous transplantation of 1×10^6 pancreatic cancer cell Suit2 in two groups of nude mice (n=5/group), 100 μg of ferrichrome dissolved in PBS in one group and PBS alone in the other group were administered intraperitoneally once every two days for 12 days under normal breeding Conditions. A photograph of the transplantation site 12 days after transplantation is shown in FIG. 21, and the change in volume of the tumor mass is shown in FIG. 22.

[23] = tested on: tumor in the large intestine; assay: AOM-DSS chemical carcinogenic mice, oral administration; format: in vivo; conditions: 50 μg orally daily for 28 days, vs PBS
Method: Azoxymethane (AOM) was administered intraperitoneally at 10 mg/kg to BALB/c mice (6 weeks old, male). Following 1 week breeding after AOM treatment, mice were administered drinking water containing dextran sulfate sodium (DSS, MP bio) diluted to 1.5% with distilled water by free access for 1 week. After a 1-week wash-out period, mice were administered drinking water containing dextran sulfate sodium (DSS, MP bio) diluted to 1% with distilled water by free access for 1 week, to prepare chemical carcinogenic models. After one more 1-week wash-out period, 50 μg of ferrichrome diluted in PBS was orally administered daily for 28 days under normal breeding conditions. After breeding, the large intestine was taken out from the mice and the tumor area was measured.
(§3) Normal mice not administered AOM and DSS and chemical carcinogenic mice orally administered PBS alone were prepared, respectively, and the tumor area in the large intestine was measured in the same manner. Photographs showing the appearance of the large intestine in each mouse are shown in FIG. 23, and tumor areas in the large intestine are shown in FIG. 24.

[24] = tested on: tumor in the large intestine; assay: AOM-DSS chemical carcinogenic mice, intraperitoneal administration; format: in vivo; conditions: 100 μg intraperitoneally once every 2 days for 49 days, vs PBS
Method: Azoxymethane (AOM) was administered intraperitoneally at 10 mg/kg to BALB/c mice (6 weeks old, male). Following 1 week breeding after AOM treatment, mice were administered drinking water containing dextran sulfate sodium (DSS, MP bio) diluted to 1% with distilled water by free access for 1 week. After a 1-week wash-out period, 100 μg of ferrichrome dissolved in PBS was intraperitoneally administered once every 2 days for 49 days under normal breeding conditions. After breeding, the large intestine was taken out from the mice and the tumor area was measured.
as §3, with “intraperitoneally” for “orally”, “25,” for “23,”, “26.” for “24.”

[25] = Blood AST, ALT and serum iron in C57/BL6 mice; format: in vivo; conditions: oral or intravenous, 10 μg or 100 μg/day for 7 days, vs controls
Method: Blood AST (aspartate aminotransferase), ALT (alanine aminotransferase), and serum iron were measured in C57/BL6 mice (n=5) after oral or intravenous administration of 10 μg or 100 μg of ferrichrome/day for 7 days.

cleaved caspase-3 = assay: Western blotting for cleaved caspase-3 in SW620; format: cell-based; conditions: ferrichrome-treated SW620, Western blotting
From the text: (§4) Total proteins recovered from the ferrichrome-treated colorectal cancer cell line SW620 using mammalian cell extraction kit (BioVision) were subjected to Western blotting using specific antibodies for cleaved caspase-3 and PARP (Cell Signaling), respectively.

PARP = assay: Western blotting for PARP in SW620; format: cell-based; conditions: ferrichrome-treated SW620, Western blotting
From the text: as §4

[26] = tested on: colorectal cancer cell line SW620; assay: TUNEL staining of SW620; format: cell-based; conditions: SW620, 0.1 μg/mL
[27] = tested on: DNA damage-inducible transcript 3 (DDIT3); assay: DDIT3 expression in SW620; format: cell-based
Method: Changes in mRNA expression between ferrichrome-treated and untreated colorectal cancer cell line SW620 were measured by high-throughput sequence analysis using a MetaCore software program. […] DDIT3 is a protein known to be involved in Bax-Bak mitochondrial permeation and JNK signaling (Tabas I, Ron D. Nat Cell Biol. 2011 March; 13(3): 184-90).

phosphorylated JNK = assay: Western blotting for phosphorylated JNK in SW620; format: cell-based; conditions: ferrichrome-treated SW620, Western blotting
[28] = tested on: rat intestinal epithelial cell line IEC-18; assay: SRB assay, rat intestinal epithelial cell line IEC-18; conditions: rat intestinal epithelial cells

For `O=c1[nH]cc(F)c(=O)[nH]1` [5-FU, 5-fluorouracil], the “effect on cell density of IEC-18” value [1] was “reduced a cell density”.
In the case of `CC(=O)N([O-])CCC[C@@H]1NC(=O)CNC(=O)CNC(=O)CNC(=O)[C@H](CCCN([O-])C(C)=O)NC(=O)[C@H](CCCN([O-])C(C)=O)NC1=O.[Fe+3]` [ferrichrome] (cyclo(GGG[Orn(N5-OH,N5-Ac)][Orn(N5-OH,N5-Ac)][Orn(N5-OH,N5-Ac)])), the “antitumor activity (cell density, OD at 510 nm)” value [2] is reported as “dose-dependent antitumor activity”, the “antitumor activity (cell density, OD at 510 nm)” value [3] is reported as “exhibited an antitumor activity” and the “antitumor activity (cell density, OD at 510 nm)” value [4] is reported as “dose-dependent antitumor activity”. The “antitumor activity compared with 5-FU and cisplatin” value [4] was “higher antitumor activity”, the “antitumor activity (cell density, OD at 510 nm)” value ([4]; listed as Ferrichrome) was “strong antitumor activity” and the “effect on cell density of mouse primary intestinal epithelial cells” value [5] was “not significantly reducing cell densities”. The antitumor activity [6] was “exhibited an antitumor activity”, the antitumor activity [7] was “exhibited an antitumor activity” and the “antitumor activity (cell density, OD at 510 nm)” value [8] was “dose-dependent antitumor activity”. The “antitumor activity (cell density, OD at 510 nm)” value [9] was “dose-dependent antitumor activity”, the “antitumor activity (cell density, OD at 510 nm)” value [10] was “dose-dependent antitumor activity” and the “antitumor activity (cell density, OD at 510 nm)” value [11] was “dose-dependent antitumor activity”. The “antitumor activity (cell density, OD at 510 nm)” value [12] was “dose-dependent antitumor activity”, the antitumor activity [13] was “exhibit an antitumor activity” and the antitumor activity [14] was “exhibit an antitumor activity”. The antitumor activity [15] was “exhibit an antitumor activity”, the antitumor activity [16] was “exhibit an antitumor activity” and the antitumor activity [17] was “exhibit an antitumor activity”. For the same compound, the antitumor activity [18] was “exhibit an antitumor activity”, the antitumor activity [19] was “exhibit an antitumor activity” and the “growth of the tumor mass (tumor mass volume)” value [20] was “markedly inhibited the growth of the tumor mass”. For the same compound, the “tumor volume ratio (volume 1 day after transplantation set to 1)” value ([21]; 21 days) was “suppressed”, the “tumor mass size at the transplantation site” value [21] was “reduced to such an extent that it could be clearly distinguished by the naked eye” and the “increase in tumor volume” value [22] was “markedly suppressed”. For the same compound, the “tumor area in the large intestine” value [23] was “significantly suppressed”, the “tumor area in the large intestine” value [24] was “significantly suppressed” and the “blood ALT (alanine aminotransferase)” value [25] was “No significant changes”. For the same compound, the “blood AST (aspartate aminotransferase)” value [25] was “No significant changes”, the serum iron [25] was “No significant changes” and the “expression of cleaved caspase-3” value (cleaved caspase-3) was “increased dose-dependently”. The “expression of PARP” value (PARP) was “increased dose-dependently”, the “induction of apoptosis (TUNEL stain-positive cells)” value [26] was “induction of apoptosis was also confirmed” and the “expression of DDIT3” value ([27]; SW620, RT-PCR and Western blotting) was “enhanced expression”. For the same compound, the “mRNA expression level of DDIT3” value ([27]; SW620 treated vs untreated, high-throughput sequence analysis) was “remarkable change (increase in expression)”, the “expression of phosphorylated JNK” value (phosphorylated JNK) was “increased” and the “effect on cell density of IEC-18” value [28] was “not significantly reducing cell densities; also recorded: did not significantly affect the cell density”.
With `N.N.[Cl][Pt][Cl]` [cisplatin] the “effect on cell density of IEC-18” value [1] was “reduced a cell density”.
